Drawing on ChEMBL document CHEMBL1130232, “Synthesis and biological evaluation of 4-(hydroxyalkyl)estradiols and related compounds” (J Med Chem, 1997), this text covers EC50 for 5 molecules.

Details in all cases: mcf7
In experiment [1] the target is T1, Estrogen receptor (Homo sapiens, UniProt Q92731+P03372). Put plainly: Affinity for estrogen receptor of human MCF-7 cells. Format: cell-based.
Experiment [2] concerns the target T1, Estrogen receptor. Description: Induction of pS2 Gene expression in human MCF-7 cells. The format is functional, cell-based.
Experiment [3] addresses T1, Estrogen receptor. Put plainly: Affinity for estrogen receptor of human MCF-7 cells at 10e-5 M. The format is cell-based.

For the molecule `C[C@]12CC[C@@H]3c4ccc(O)c(O)c4CC[C@H]3[C@@H]1CC[C@@H]2O`, the concentration giving a half-maximal response (EC50) is 506 nM on Estrogen receptor [1] and 65.4 nM at Estrogen receptor [2].

In turn, `C[C@]12CC[C@@H]3c4ccc(O)c(CCN)c4CC[C@H]3[C@@H]1CC[C@@H]2O` came in with an EC50 at Estrogen receptor [3] of 2500 nM.

Consider `C[C@]12CC[C@@H]3c4ccc(O)c(CCO)c4CC[C@H]3[C@@H]1CC[C@@H]2O`, for which the concentration giving a half-maximal response (EC50) was 620 nM at Estrogen receptor [1] and 148 nM at Estrogen receptor [2].

In the case of `C[C@]12CC[C@@H]3c4ccc(O)c(CO)c4CC[C@H]3[C@@H]1CC[C@@H]2O`, the EC50 came out at 364 nM on Estrogen receptor [1] and 11.7 nM on Estrogen receptor [2].

For the molecule `C[C@]12CC[C@@H]3c4ccc(O)c(CCCO)c4CC[C@H]3[C@@H]1CC[C@@H]2O`, the EC50 on Estrogen receptor [1] was 3320 nM; at Estrogen receptor [2], 2950 nM.
